Data reported in patent US4315928A, “N-Aminosulfenyl carbamate compounds, compositions and use” (priority 1975, dated 1982).

Tests used:
soybeans = test: Phytotoxicity Test, soybeans; type: in vivo; parameters: key: A rating of 1 indicates no perceptible injury; ratings of 2, 3 and 4 indicate intermediate degrees of injury; ratings of 2, 3 and 4 indicate intermediate degrees of injury; ratings of 2, 3 and 4 indicate intermediate degrees of injury; 5 indicates the plant was dead; conditions: ten days
Procedure: (§1) Suspensions of the test compounds were prepared by dissolving one gram of compound in 50 milliliters of acetone in which had been dissolved 0.1 gram (10 percent of the weight of compound) of an alkylphenoxy polyethoxyethanol surfactant, as an emulsifying or dispersing agent. The resulting solution was mixed into 150 milliliters of water to give roughly 200 milliliters of a suspension containing the compound in finely divided form. The thus-prepared stock suspension contained 0.5 percent by weight of compound. The test concentrations in parts per million by weight employed in the tests described hereinbelow were obtained by appropriate dilutions of the stock suspension with water. The test procedures were as follows:
(§2) Experiments were also conducted to determine the phytotoxicity of representative compositions with respect to healthy fresh plants. Solutions of the compounds were prepared as described above to provide a concentration of 2500 parts per million of the test compound. The test plants were sprayed in accordance with the procedure described above for the Mite Foliage Spray Test so as to deliver approximately 100 milliliters of test solution to the leaves of each plant tested. The sprayed plants and controls were set aside for approximately one hour to allow the solutions to dry and were then placed in the greenhouse. After ten days the plants were visually inspected to determine the extent of foliage injury. A rating of 1 indicates no perceptible injury; 5 indicates the plant was dead and ratings of 2, 3 and 4 indicate intermediate degrees of injury based upon the number and extent to which leaves were injured.

rat = test: in vivo; conditions: oral, statement on Table I
Procedure: (§3) These compositions were also evaluated to determine their peroral toxicity to mammals by conventional methods. The animal selected for this experiment was the rat.

in vivo = conditions: rat, in vivo, po
Procedure: as §3

cotton = test: Phytotoxicity Test, cotton; type: in vivo; parameters: key: A rating of 1 indicates no perceptible injury; ratings of 2, 3 and 4 indicate intermediate degrees of injury; ratings of 2, 3 and 4 indicate intermediate degrees of injury; ratings of 2, 3 and 4 indicate intermediate degrees of injury; 5 indicates the plant was dead; conditions: ten days
Procedure: as §1, §2

[1] = tested on: two-spotted mite (Tetranychus urticae Koch); test: whole plant or invertebrate; conditions: foliar, 144 h, read-out: Insect Toxicity, % Kill at 250 ppm, TSM
[2] = tested on: southern armyworm (Prodenia eridania, (Cram.)); test: whole plant or invertebrate; conditions: Spodoptera eridania, 72 h, read-out: Insect Toxicity, % Kill at 250 ppm, SAW
[3] = tested on: bean aphid (Aphis fabae Scop.); test: whole plant or invertebrate; conditions: foliar, 24 h, read-out: Insect Toxicity, % Kill at 250 ppm, BA
green beans = test: Phytotoxicity Test, green beans; type: in vivo; parameters: key: A rating of 1 indicates no perceptible injury; ratings of 2, 3 and 4 indicate intermediate degrees of injury; ratings of 2, 3 and 4 indicate intermediate degrees of injury; ratings of 2, 3 and 4 indicate intermediate degrees of injury; 5 indicates the plant was dead; conditions: ten days
Procedure: as §1, §2

[4] = tested on: house flies (Musca domestica, L.); test: whole plant or invertebrate; conditions: po, 24 h, read-out: Insect Toxicity, % Kill at 250 ppm, HF
tomato = test: Phytotoxicity Test, tomato; type: in vivo; parameters: key: A rating of 1 indicates no perceptible injury; ratings of 2, 3 and 4 indicate intermediate degrees of injury; ratings of 2, 3 and 4 indicate intermediate degrees of injury; ratings of 2, 3 and 4 indicate intermediate degrees of injury; 5 indicates the plant was dead; conditions: ten days
Procedure: as §1, §2

corn = test: Phytotoxicity Test, corn; type: in vivo; parameters: key: A rating of 1 indicates no perceptible injury; ratings of 2, 3 and 4 indicate intermediate degrees of injury; ratings of 2, 3 and 4 indicate intermediate degrees of injury; ratings of 2, 3 and 4 indicate intermediate degrees of injury; 5 indicates the plant was dead; conditions: ten days
Procedure: as §1, §2

[5] = tested on: Mexican bean beetle (Epilachna varivestis, Muls.); test: whole plant or invertebrate; conditions: 72 h, read-out: Insect Toxicity, % Kill at 250 ppm, MBB

| SMILES | Crop Phytotoxicity, Injury Rating at 2500 ppm, SOYBN. (soybeans) | mammalian toxicity (in words) (rat) | LD50 (in vivo) | Crop Phytotoxicity, Injury Rating at 2500 ppm, COT. (cotton) | mortality at 250 ppm [1] | mortality at 250 ppm [2] | mortality at 250 ppm [3] | Crop Phytotoxicity, Injury Rating at 2500 ppm, GB (green beans) | mortality at 250 ppm [4] | Crop Phytotoxicity, Injury Rating at 2500 ppm, TOM (tomato) | Crop Phytotoxicity, Injury Rating at 2500 ppm, CN (corn) | mortality at 250 ppm [5] |
| --- | --- | --- | --- | --- | --- | --- | --- | --- | --- | --- | --- | --- |
| CSC(C)=NOC(=O)N(C)SN1CCCCC1 [Compound 12, S-Methyl-N-[N'-Methyl-N'-(1-Piperidinosulfenyl)Carbamoyloxy]Thioacetimidate] | 1 | extremely low mammalian toxicity | 141 mg/kg | 1 | 100% | 100% | 100% | 1 | 100% | 1 | 1 | 100% |
| CCCCN(CCCC)SN(C)C(=O)ON=C(C)SC [Compound 28, S-Methyl N-[N'-Methyl-N'-(Di-n-butylaminosulfenyl)Carbamoyloxy]-Thioacetimidate] | 1 | extremely low mammalian toxicity | 317 mg/kg | 1 | 50% | 100% | 100% | 1 | 100% | 1 | 1 | 100% |
| CCSC(C)=NOC(=O)N(C)SN1CCOCC1 [Compound 4, S-Ethyl-N-[N'-Methyl-N'-(4-Morpholinosulfenyl)Carbamoyloxy]Thioacetimidate] | 2 | extremely low mammalian toxicity | 141 mg/kg | 1 | 100% | 100% | 100% | 1 | 100% | 1 | 1 | 100% |
| CCN(CC)SN(C)C(=O)ON=C(C)SC [Compound 17] | 2 | extremely low mammalian toxicity | 178 mg/kg | 2 | 80% | 100% | 100% | 2 | 100% | 1 | 2 | 100% |
